Data: patent US9884823B2, “Oxime ether acetate compound, preparation method therefor and weeding application thereof” (ZHEJIANG UNIVERSITY OF TECHNOLOGY, priority 2014, dated 2018)
Read-outs that look alike come from different tables or passages of the source.

Assays:
Barnyardgrass [1] = assay: Culture dish method (general screening); assay type: in vivo, barnyard grass; settings: 100 mg/L, 7 days
Text: (§2) Culture dish method (general screening): The test targets were radish, cucumber, rape, wheat, sorghum and barnyard grass; the seeds of wheat, sorghum and radish were germinated in advance, and the uniform emerge-germinating seeds were used in the test.

Soybean = settings: 150 g a.i./ha; post-emergence spray treatment
Radish = assay: Culture dish method (general screening); assay type: in vivo; settings: 100 mg/L, 7 days
Text: as §2

Barley = settings: post-emergence spray treatment
Cotton = settings: 150 g a.i./ha; post-emergence spray treatment
Corn = settings: post-emergence spray treatment
Cucumber = assay: Culture dish method (general screening); assay type: in vivo; settings: 100 mg/L, 7 days
Text: as §2

Barnyardgrass [2] = assay: Potted plants live body test; assay type: in vivo, barnyard grass
Crabgrass = assay: Potted plants live body test; assay type: in vivo
Outline: (§1)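 Weeds were sown directly into 7.5 cm pots of garden soil:nursery matrix (1:2, v/v) and covered with 0.2 cm soil. Compounds were dissolved in DMF with 1 wt % Tween-80 to a 1.0˜5.0% stock, then diluted with distilled water for treatment.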

Abutilon = assay: Potted plants live body test; assay type: in vivo
Outline: as §1

Dog point = assay: Potted plants live body test; assay type: in vivo
Outline: as §1

Eclipta prostrata = assay: Potted plants live body test; assay type: in vivo; settings: for efficiency, Eclipta prostrata: 30 days, Table 9
Outline: as §1

amaranthus retroflexus = assay: Potted plants live body test; assay type: in vivo
Outline: as §1

Wheat = assay: Culture dish method (general screening); assay type: in vivo; settings: 100 mg/L, 7 days
Text: as §2

Rape [3] = settings: 150 g a.i./ha; post-emergence spray treatment
Small quinoa = settings: 150 g a.i./ha, 30 days, Table 9
weeds = settings: pre-emergence soil treatment; dose lowered below 150 g a.i./ha
[4] = system: grass weeds such as crabgrass, barnyard grass, dog point
[5] = system: broadleaf weeds such as mustard, small quinoa, Abutilon, Amaranthus retroflexus and Eclipta prostrate; settings: 150 g a.i./ha
Rape [6] = assay: Culture dish method (general screening); assay type: in vivo; settings: 100 mg/L, 7 days
Text: as §2

Mustard = settings: 150 g a.i./ha, 30 days, Table 9
Rice = settings: 150 g a.i./ha; post-emergence spray treatment
Chinese sorghum = assay: Culture dish method (general screening); assay type: in vivo; settings: 100 mg/L, 7 days
Text: as §2

[7] = Pre-emergence soil treatment, 37.5 g a.i./ha
[8] = Pre-emergence soil treatment, 75 g a.i./ha
[9] = Pre-emergence soil treatment, 150 g a.i./ha, Table 10
[10] = postemergence spraying, 37.5 g a.i./ha
[11] = postemergence spraying, 75 g a.i./ha
[12] = postemergence spraying, 150 g a.i./ha, Table 10
[13] = Postemergence spraying, 150 g a.i./ha, 30 days, Table 9
[14] = Pre-emergence soil treatment, 150 g a.i./ha, 30 days, Table 9

## CON=C(C(=O)OC)c1ccccc1COc1cccc(-c2ncc(C(F)(F)F)cc2Cl)c1 [Compound 101]
Barnyardgrass [1]; root
  inhibition rate, Barnyardgrass Root: 100%
Barnyardgrass [1]; stem
  inhibition rate, Barnyardgrass Stem: 95%
Soybean
  Crop inhibition rate, Soybean: 40%
Radish; root
  inhibition rate, Radish Root: 100%
Radish; stem
  inhibition rate, Radish Stem: 100%
Barley; 150 g a.i./ha
  Crop inhibition rate, Barley: 0%
Barley
  crop safety for barleys: safer
Cotton
  Crop inhibition rate, Cotton: 50%
Corn; 150 g a.i./ha
  Crop inhibition rate, Corn: 0%
Corn
  crop safety for corns: safer
Cucumber; root
  inhibition rate, Cucumber Root: 95%
Cucumber; stem
  inhibition rate, Cucumber Stem: 100%
Barnyardgrass [2]; [7]
  efficiency, Barnyardgrass: 0%
Barnyardgrass [2]; [8]
  efficiency, Barnyardgrass: 0%
Barnyardgrass [2]; [9]
  efficiency, Barnyardgrass: 0%
Barnyardgrass [2]; [10]
  efficiency, Barnyardgrass: 0%
Barnyardgrass [2]; [11]
  efficiency, Barnyardgrass: 0%
Barnyardgrass [2]; [12]
  efficiency, Barnyardgrass: 0%
Crabgrass; [13]
  efficiency, Crabgrass: 0%
Crabgrass; [7]
  efficiency, Crabgrass: 0%
Crabgrass; [8]
  efficiency, Crabgrass: 0%
Crabgrass; [14]
  efficiency, Crabgrass: 80%
Crabgrass; [9]
  efficiency, Crabgrass: 80%
Crabgrass; [10]
  efficiency, Crabgrass: 0%
Crabgrass; [11]
  efficiency, Crabgrass: 0%
Crabgrass; [12]
  efficiency, Crabgrass: 0%
Abutilon; [13]
  efficiency, Abutilon: 100%
Abutilon; [7]
  efficiency, Abutilon: 0%
Abutilon; [8]
  efficiency, Abutilon: 0%
Abutilon; [14]
  efficiency, Abutilon: 100%
Abutilon; [9]
  efficiency, Abutilon: 100%
Abutilon; [10]
  efficiency, Abutilon: 30%
Abutilon; [11]
  efficiency, Abutilon: 60%
Abutilon; [12]
  efficiency, Abutilon: 100%
Dog point; [13]
  efficiency, Dog point: 0%
Dog point; [7]
  efficiency, Dog point: 0%
Dog point; [8]
  efficiency, Dog point: 0%
Dog point; [14]
  efficiency, Dog point: 50%
Dog point; [9]
  efficiency, Dog point: 50%
Dog point; [10]
  efficiency, Dog point: 0%
Dog point; [11]
  efficiency, Dog point: 0%
Dog point; [12]
  efficiency, Dog point: 0%
Eclipta prostrata; Postemergence spraying, 150 g a.i./ha
  efficiency, Eclipta prostrata: 100%
Eclipta prostrata; [7]
  efficiency, Eclipta prostrate: 0%
Eclipta prostrata; [8]
  efficiency, Eclipta prostrate: 0%
Eclipta prostrata; Pre-emergence soil treatment, 150 g a.i./ha
  efficiency, Eclipta prostrata: 85%
Eclipta prostrata; [9]
  efficiency, Eclipta prostrate: 85%
Eclipta prostrata; [10]
  efficiency, Eclipta prostrate: 97.5%
Eclipta prostrata; [11]
  efficiency, Eclipta prostrate: 100%
Eclipta prostrata; [12]
  efficiency, Eclipta prostrate: 100%
Amaranthus retroflexus; [13]
  efficiency, amaranthus retroflexus: 100%
Amaranthus retroflexus; [7]
  efficiency, amaranthus retroflexus: 0%
Amaranthus retroflexus; [8]
  efficiency, amaranthus retroflexus: 15%
Amaranthus retroflexus; [14]
  efficiency, amaranthus retroflexus: 100%
Amaranthus retroflexus; [9]
  efficiency, amaranthus retroflexus: 100%
Amaranthus retroflexus; [10]
  efficiency, amaranthus retroflexus: 100%
Amaranthus retroflexus; [11]
  efficiency, amaranthus retroflexus: 100%
Amaranthus retroflexus; [12]
  efficiency, amaranthus retroflexus: 100%
Wheat; root
  inhibition rate, Wheat Root: 50%
Wheat; stem
  inhibition rate, Wheat Stem: 20%
Rape [3]
  Crop inhibition rate, Rape: 50%
Small quinoa; Postemergence spraying
  efficiency, Small quinoa: 100%
Small quinoa; Pre-emergence soil treatment
  efficiency, Small quinoa: 100%
weeds
  activity on 6 kinds of weed targets: significantly decreased activity or no activity
[4]; 150 g a.i./ha, 30 days after administration, Table 9 summary
  activity for grass targets such as crabgrass and dog point: poor activity
[4]; postemergence spraying, 150 g a.i./ha, 30 days
  activity on grass weeds such as crabgrass, dog point: almost have no activity
[4]; postemergence treatment, 150, 75, 37.5 g a.i./ha
  activity on crabgrass, barnyard grass, dog point: not good activity or no activity
[4]; pre-emergence soil treatment, 150 g a.i./ha
  activity on grass weeds: not good activity
[5]; 30 days after administration, Table 9 summary
  herbicidal activity on broadleaf weeds targets: herbicidal activity
[5]; postemergence spraying, 30 days, vs clear water control
  activity on the growth of broadleaf weeds: inhibitory activity
Rape [6]; root
  inhibition rate, Rape Root: 100%
Rape [6]; stem
  inhibition rate, Rape Stem: 100%
Mustard; Postemergence spraying
  efficiency, Mustard: 100%
Mustard; Pre-emergence soil treatment
  efficiency, Mustard: 100%
Rice
  Crop inhibition rate, Rice: 30%
Chinese sorghum; root
  inhibition rate, Chinese sorghum Root: 100%
Chinese sorghum; stem
  inhibition rate, Chinese sorghum Stem: 100%
